Measurements taken from US20110098288A1, “SULFONAMIDES AS ZAP-70 INHIBITORS” (priority 2008, published 2011).
Where a name gives a salt, the structure may show the parent alone.

Target: T1, ZAP-70 (Homo sapiens, UniProt P43403)
T1 construct: endogenous in cells; host or cells: cell lysate
T1 sequence (P43403 1-619): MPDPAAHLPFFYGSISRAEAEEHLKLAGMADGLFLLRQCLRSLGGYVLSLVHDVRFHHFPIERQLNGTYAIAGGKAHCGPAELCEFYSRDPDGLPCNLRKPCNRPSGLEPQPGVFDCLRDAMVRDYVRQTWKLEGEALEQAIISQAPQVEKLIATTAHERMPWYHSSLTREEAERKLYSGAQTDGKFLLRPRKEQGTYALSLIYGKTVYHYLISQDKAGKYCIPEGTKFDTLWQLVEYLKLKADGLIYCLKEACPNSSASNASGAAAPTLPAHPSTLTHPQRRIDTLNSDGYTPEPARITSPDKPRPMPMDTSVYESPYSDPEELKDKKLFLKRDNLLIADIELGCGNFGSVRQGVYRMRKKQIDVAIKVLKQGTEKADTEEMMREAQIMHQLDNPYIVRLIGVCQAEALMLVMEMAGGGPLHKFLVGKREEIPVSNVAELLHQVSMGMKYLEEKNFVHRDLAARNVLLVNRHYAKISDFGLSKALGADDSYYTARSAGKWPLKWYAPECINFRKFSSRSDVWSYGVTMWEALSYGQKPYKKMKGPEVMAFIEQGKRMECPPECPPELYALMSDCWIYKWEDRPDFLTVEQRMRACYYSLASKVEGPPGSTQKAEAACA
Assay: ZAP-70 kinobeads assay
Type: binding
Settings: competition with immobilized aminopyrido-pyrimidine ligand 24 in cell lysate; ZAP-70 detected by dot blot
Procedure: The compounds of the present invention as described in the previous examples can be tested in the ZAP-70 kinobeads assay as described (EP-A 1862802 and WO-A 2007/137867). Briefly, test compounds (at various concentrations) and the affinity matrix with the immobilized aminopyrido-pyrimidine ligand 24 are added to cell lysate aliquots and allowed to bind to the proteins in the lysate sample. After the incubation time the beads with captured proteins are separated from the lysate. Bound proteins are then eluted and the presence ZAP-70 is detected and quantified using a specific antibody in a dot blot procedure and the Odyssey infrared detection system. Conventionally, ZAP-70 kinase activity can be measured using purified or recombinant enzyme in a solution-based assay with protein or peptide substrates (Isakov et al., 1996, J. Biol. Chem. 271(26), 15753-15761; Moffat et al., 1999, Bioorg. Med. Chem. Letters 9, 3351-3356).

IC50 [nM]	Compound
100 to 1000	CS(=O)(=O)Nc1ccccc1Nc1nc(Nc2cccc(-c3cnco3)c2)ncc1F [Example 193, N-(2-(5-fluoro-2-(3-(oxazol-5-yl)phenylamino)pyrimidin-4-ylamino)phenyl)methanesulfonamide]
100 to 1000	COc1cc(Nc2ncc(F)c(Nc3ccccc3NS(C)(=O)=O)n2)ccc1C [Example 73, N-(2-(5-fluoro-2-(3-methoxy-4-methylphenylamino)pyrimidin-4-ylamino)phenyl)methanesulfonamide]
1000 to 10000	CCN(c1ccccc1Nc1nc(Nc2ccc(OC)c(OC)c2)ncc1F)S(C)(=O)=O [Example 157, N-(2-(2-(3,4-dimethoxyphenylamino)-5-fluoropyrimidin-4-ylamino)phenyl)-N-ethylmethanesulfonamide]
1000 to 10000	CS(=O)(=O)Nc1ccccc1Nc1nc(Nc2cccc(C(=O)NC3CC3)c2)ncc1F [Example 83, N-cyclopropyl-3-(5-fluoro-4-(2-(methylsulfonamido)phenylamino)pyrimidin-2-ylamino)benzamide]
100 to 1000	CS(=O)(=O)Nc1ccccc1Nc1nc(Nc2cccc(OC(F)F)c2)ncc1Br [Example 103, N-(2-(5-bromo-2-(3-(difluoromethoxy)phenylamino)pyrimidin-4-ylamino)phenyl)methanesulfonamide]
1000 to 10000	COc1cc(Nc2ncc(F)c(Nc3ccccc3NS(=O)(=O)c3cccnc3)n2)cc(OC)c1OC [Example 52, N-(2-(5-fluoro-2-(3,4,5-trimethoxyphenylamino)pyrimidin-4-ylamino)phenyl)pyridine-3-sulfonamide]
100 to 1000	CS(=O)(=O)Nc1ccccc1Nc1nc(Nc2ccc(-n3cnnn3)cc2)ncc1Cl [Example 214, N-(2-(2-(4-(1H-tetrazol-1-yl)phenylamino)-5-chloropyrimidin-4-ylamino)phenyl)methanesulfonamide]
100 to 1000	CS(=O)(=O)Nc1ccccc1Nc1nc(Nc2cccc(C#N)c2)ncc1Cl [Example 205, N-(2-(5-chloro-2-(3-cyanophenylamino)pyrimidin-4-ylamino)phenyl)methanesulfonamide]
< 100	CS(=O)(=O)Nc1ccccc1Nc1nc(Nc2cccc(OCCN3CCNCC3)c2)ncc1Cl [Example 133, N-(2-(5-chloro-2-(3-(2-(piperazin-1-yl)ethoxy)phenylamino)pyrimidin-4-ylamino)phenyl)methanesulfonamide trifluoroacetate]
< 100	CS(=O)(=O)Nc1ccccc1Nc1nc(Nc2cccc(OCCC3CCCN3)c2)ncc1Cl (stereo not shown) [Example 131, N-(2-(5-chloro-2-(3-(2-(pyrrolidin-2-yl)ethoxy)phenylamino)pyrimidin-4-ylamino)phenyl)methanesulfonamide]
1000 to 10000	Cc1n[nH]c(-c2ccc(Nc3ncc(F)c(Nc4ccccc4NS(C)(=O)=O)n3)cc2)n1 [Example 191, N-(2-(5-fluoro-2-(4-(3-methyl-1H-1,2,4-triazol-5-yl)phenylamino)pyrimidin-4-ylamino)phenyl)methanesulfonamide]
100 to 1000	COc1ccc(Nc2nc(Nc3cc(OC)c(OC)c(OC)c3)ncc2Cl)c(NS(C)(=O)=O)c1F [Example 187, N-(6-(5-chloro-2-(3,4,5-trimethoxyphenylamino)pyrimidin-4-ylamino)-2-fluoro-3-methoxyphenyl)methanesulfonamide]
1000 to 10000	CS(=O)(=O)Nc1ccccc1Nc1nc(Nc2cccc(-n3cnnn3)c2)ncc1F [Example 188, N-(2-(2-(3-(1H-tetrazol-1-yl)phenylamino)-5-fluoropyrimidin-4-ylamino)phenyl)methanesulfonamide]
1000 to 10000	CS(=O)(=O)Nc1ccccc1Nc1nc(Nc2cccc(OC(F)F)c2)ncc1F [Example 26, N-(2-(2-(3-(difluoromethoxy)phenylamino)-5-fluoropyrimidin-4-ylamino)phenyl)methanesulfonamide]
1000 to 10000	CCCOc1cccc(Nc2ncc(F)c(Nc3cccc(C)c3NS(C)(=O)=O)n2)c1 [Example 122, N-(2-(5-fluoro-2-(3-propoxyphenylamino)pyrimidin-4-ylamino)-6-methylphenyl)methanesulfonamide]
1000 to 10000	CS(=O)(=O)Nc1ccccc1Nc1nc(Nc2ccc(C#N)cc2)ncc1Cl [Example 204, N-(2-(5-chloro-2-(4-cyanophenylamino)pyrimidin-4-ylamino)phenyl)methanesulfonamide]

IC50 [nM]	Compound
100 to 1000	CCN(CC)C(=O)COc1cccc(Nc2ncc(F)c(Nc3ccccc3NS(C)(=O)=O)n2)c1 [Example 100, N,N-diethyl-2-(3-(5-fluoro-4-(2-(methylsulfonamido)phenylamino)pyrimidin-2-ylamino)phenoxy)acetamide 2,2,2-trifluoroacetate]
100 to 1000	COc1cc(Nc2ncc(F)c(Nc3ccc(OCCCN4CCCCC4)cc3NS(C)(=O)=O)n2)cc(OC)c1OC [Example 185, N-(2-(5-fluoro-2-(3,4,5-trimethoxyphenylamino)pyrimidin-4-ylamino)-5-(3-(piperidin-1-yl)propoxy)phenyl)methanesulfonamide]
1000 to 10000	CS(=O)(=O)Nc1ccccc1Nc1nc(Nc2ccc(C#N)cc2)ncc1F [Example 196, N-(2-(2-(4-cyanophenylamino)-5-fluoropyrimidin-4-ylamino)phenyl)methanesulfonamide]
1000 to 10000	COc1cc(Nc2ncc(F)c(Nc3cc(C)cc(C)c3NS(C)(=O)=O)n2)cc(OC)c1OC [Example 186, N-(2-(5-fluoro-2-(3,4,5-trimethoxyphenylamino)pyrimidin-4-ylamino)-4,6-dimethylphenyl)methanesulfonamide]
1000 to 10000	CS(=O)(=O)Nc1ccccc1Nc1nc(Nc2cccc(C#N)c2)ncc1F [Example 200, N-(2-(2-(3-cyanophenylamino)-5-fluoropyrimidin-4-ylamino)phenyl)methanesulfonamide]
100 to 1000	CS(=O)(=O)Nc1ccccc1Nc1nc(Nc2cccc(OCC(=O)O)c2)ncc1Cl [Example 149, 2-(3-(5-chloro-4-(2-(methylsulfonamido)phenylamino)pyrimidin-2-ylamino)phenoxy)acetic acid hydrochloride]
100 to 1000	CCN(c1ccccc1Nc1nc(Nc2ccc(OCCN3CCOCC3)cc2)ncc1F)S(C)(=O)=O [Example 159, N-ethyl-N-(2-(5-fluoro-2-(4-(2-morpholinoethoxy)phenylamino)pyrimidin-4-ylamino)phenyl)methanesulfonamide]
100 to 1000	CS(=O)(=O)Nc1ccccc1Nc1nc(Nc2cccc(-n3cnnn3)c2)ncc1Cl [Example 203, N-(2-(2-(3-(1H-tetrazol-1-yl)phenylamino)-5-chloropyrimidin-4-ylamino)phenyl)methanesulfonamide]
1000 to 10000	CN1C(=O)COc2ccc(Nc3ncc(F)c(Nc4ccccc4NS(C)(=O)=O)n3)cc21 [Example 20, N-(2-(5-fluoro-2-(4-methyl-3-oxo-3,4-dihydro-2H-benzo[b][1,4]oxazin-6-ylamino)pyrimidin-4-ylamino)phenyl)methanesulfonamide]
1000 to 10000	COc1ccc(Nc2ncc(F)c(Nc3ccccc3N(C)S(C)(=O)=O)n2)cc1 [Example 108, N-(2-(5-fluoro-2-(4-methoxyphenylamino)pyrimidin-4-ylamino)phenyl)-N-methylmethanesulfonamide]
< 100	COc1ccc(Nc2nc(Nc3ccc(OC)c(OC)c3)ncc2F)c(NS(C)(=O)=O)c1 [Example 180, N-(2-(2-(3,4-dimethoxyphenylamino)-5-fluoropyrimidin-4-ylamino)-5-methoxyphenyl)methanesulfonamide]
100 to 1000	CN(c1ccccc1Nc1nc(Nc2ccc(OCCN3CCCCC3)cc2)ncc1F)S(C)(=O)=O [Example 110, N-(2-(5-fluoro-2-(4-(2-(piperidin-1-yl)ethoxy)phenylamino)pyrimidin-4-ylamino)phenyl)-N-methylmethanesulfonamide]
100 to 1000	CS(=O)(=O)Nc1ccccc1Nc1nc(Nc2cccc(C(=O)N3CCCC3)c2)ncc1F [Example 82, N-(2-(5-fluoro-2-(3-(pyrrolidine-1-carbonyl)phenylamino)pyrimidin-4-ylamino)phenyl)methanesulfonamide]
100 to 1000	CS(=O)(=O)Nc1ccccc1Nc1nc(Nc2cccc(-n3cccn3)c2)ncc1Cl [Example 206, N-(2-(2-(3-(1H-pyrazol-1-yl)phenylamino)-5-chloropyrimidin-4-ylamino)phenyl)methanesulfonamide]
100 to 1000	COCCOc1cccc(Nc2ncc(F)c(Nc3cccc(C)c3NS(C)(=O)=O)n2)c1 [Example 115, N-(2-(5-fluoro-2-(3-(2-methoxyethoxy)phenylamino)pyrimidin-4-ylamino)-6-methylphenyl)methanesulfonamide]
